Experimental data reported in US9695155B2, “Herbicidal substituted pyrimidinyloxy benzene compounds” (E. I. DU PONT DE NEMOURS AND COMPANY, priority 2013, dated 2017).

Key:
Assay in all cases: Test E preemergence
field bindweed = assay type: in vivo, Convolvulus arvensis; conditions: for Field Bindweed plant response rating: scale 0 to 100 (0 no effect, 100 complete control)
Text: (§1) Seeds of plant species selected from corn (Zea mays), soybean (Glycine max), velvetleaf (Abutilon theophrasti), lambsquarters (Chenopodium album), wild poinsettia (Euphorbia heterophylla), palmer pigweed (Amaranthus palmeri), waterhemp (common waterhemp, Amaranthus rudis), surinam grass (Brachiaria decumbens), large (Lg) crabgrass (Digitaria sanguinalis), Brazilian crabgrass (Digitaria horizontalis), fall panicum (Panicum dichotomiflorum), giant foxtail (Setaria faberii), green foxtail (Setaria viridis), goosegrass (Eleusine indica), johnsongrass (Sorghum halepense), ragweed (common ragweed, Ambrosia elatior), barnyardgrass (Echinochloa crus-galli), sandbur (southern sandbur, Cenchrus echinatus), arrowleaf sida (Sida rhombifolia), Italian ryegrass (Lolium multiflorum), dayflower (Virginia (VA) dayflower, Commelina virginica), field bindweed (Convolvulus arvensis), morningglory (Ipomoea coccinea), nightshade (eastern black nightshade, Solanum ptycanthum), kochia (Kochia scoparia), yellow nutsedge (Cyperus esculentus), cocklebur (common cocklebur, Xanthium strumarium), smartweed (ladysthumb smartweed, and hairy beggarticks (Bidens pilosa), were planted into a silt loam soil and treated preemergence with test chemicals formulated in a non-phytotoxic solvent mixture which included a surfactant.
(§2) At the same time, plants from these crop and weed species and also horseweed (Canada horseweed, Conyza canadensis), waterhemp_RES1, (ALS & Triazine resistant common waterhemp, Amaranthus rudis), and waterhemp_RES2, (ALS & HPPD resistant common waterhemp, Amaranthus rudis) were planted in pots containing Redi-Earth® planting medium (Scotts Company, 14111 Scottslawn Road, Marysville, Ohio 43041) comprising spaghnum peat moss, vermiculite, wetting agent and starter nutrients were treated with postemergence applications of test chemicals formulated in the same manner. Plants ranged in height from 2 to 18 cm for postemergence treatments (1- to 4-leaf stage). Treated plants and controls were maintained in a greenhouse for 14 to 21 days, after which time all species were compared to controls and visually evaluated. Plant response ratings, summarized in Table E, are based on a scale of 0 to 100 where 0 is no effect and 100 is complete control. A dash (-) response means no test result.

sandbur = assay type: in vivo, Cenchrus echinatus; conditions: for Sandbur plant response rating: scale 0 to 100 (0 no effect, 100 complete control)
Text: as §1, §2

dayflower = assay type: in vivo, Commelina virginica; conditions: for Dayflower, VA plant response rating: scale 0 to 100 (0 no effect, 100 complete control)
Text: as §1, §2

lambsquarters = assay type: in vivo, Chenopodium album; conditions: for Lambsquarters plant response rating: scale 0 to 100 (0 no effect, 100 complete control)
Text: as §1, §2

yellow nutsedge = assay type: in vivo, Cyperus esculentus; conditions: for Nutsedge, Yellow plant response rating: scale 0 to 100 (0 no effect, 100 complete control)
Text: as §1, §2

ragweed = assay type: in vivo, Ambrosia elatior; conditions: for Ragweed plant response rating: scale 0 to 100 (0 no effect, 100 complete control)
Text: as §1, §2

Italian ryegrass = assay type: in vivo, Lolium multiflorum; conditions: for Ryegrass, Italian plant response rating: scale 0 to 100 (0 no effect, 100 complete control)
Text: as §1, §2

goosegrass = assay type: in vivo, Eleusine indica; conditions: for Goosegrass plant response rating: scale 0 to 100 (0 no effect, 100 complete control)
Text: as §1, §2

soybean = assay type: in vivo, Glycine max; conditions: for Soybean plant response rating: scale 0 to 100 (0 no effect, 100 complete control)
Text: as §1, §2

waterhemp = assay type: in vivo, Amaranthus rudis; conditions: for Waterhemp plant response rating: scale 0 to 100 (0 no effect, 100 complete control)
Text: as §1, §2

hairy beggarticks = assay type: in vivo, Bidens pilosa; conditions: preemergence; for Beggarticks plant response rating: scale 0 to 100 (0 no effect, 100 complete control)
Text: as §1, §2

[1] = 125 g ai/ha, scale 0 to 100, 0 no effect, 100 complete control
[2] = 250 g ai/ha, scale 0 to 100, 0 no effect, 100 complete control
[3] = 8 g ai/ha, scale 0 to 100, 0 is no effect, 100 is complete control

`Cc1cnc(Oc2cccc(C#N)c2-n2cc(C(F)(F)F)cn2)nc1` [Compound 180] was tested, and the “Field Bindweed plant response rating” value (field bindweed; 31 g ai/ha) was 10, the “Field Bindweed plant response rating” value (field bindweed; 62 g ai/ha) was 25 and the “Plant response rating, Field Bindweed” value (field bindweed; [1]) was 65. For the same compound, the “Plant response rating, Field Bindweed” value (field bindweed; [2]) was 90, the “Sandbur plant response rating” value (sandbur; 31 g ai/ha) was 0 and the “Sandbur plant response rating” value (sandbur; 62 g ai/ha) was 20. The “Plant response rating, Sandbur” value (sandbur; [1]) was 75, the “Plant response rating, Sandbur” value (sandbur; [2]) was 90 and the “Dayflower, VA plant response rating” value (dayflower; 31 g ai/ha) was 0. The “Dayflower, VA plant response rating” value (dayflower; 62 g ai/ha) was 35, the “Plant response rating, Dayflower, VA” value (dayflower; [1]) was 85 and the “Plant response rating, Dayflower, VA” value (dayflower; [2]) was 90. For the same compound, the “Lambsquarters plant response rating” value (lambsquarters; 31 g ai/ha) was 98, the “Lambsquarters plant response rating” value (lambsquarters; 62 g ai/ha) was 100 and the “Plant response rating, Lambsquarters” value (lambsquarters; [1]) was 100. For the same compound, the “Plant response rating, Lambsquarters” value (lambsquarters; [2]) was 100, the “Nutsedge, Yellow plant response rating” value (yellow nutsedge; 31 g ai/ha) was 0 and the “Nutsedge, Yellow plant response rating” value (yellow nutsedge; 62 g ai/ha) was 30. The “Plant response rating, Nutsedge, Yellow” value (yellow nutsedge; [1]) was 60, the “Plant response rating, Nutsedge, Yellow” value (yellow nutsedge; [2]) was 75 and the “Ragweed plant response rating” value (ragweed; 31 g ai/ha) was 70. For the same compound, the “Ragweed plant response rating” value (ragweed; 62 g ai/ha) was 90, the “Plant response rating, Ragweed” value (ragweed; [1]) was 100 and the “Plant response rating, Ragweed” value (ragweed; [2]) was 100. The “Ryegrass, Italian plant response rating” value (Italian ryegrass; 31 g ai/ha) was 0, the “Ryegrass, Italian plant response rating” value (Italian ryegrass; 62 g ai/ha) was 0 and the “Plant response rating, Ryegrass, Italian” value (Italian ryegrass; [1]) was 30. The “Plant response rating, Ryegrass, Italian” value (Italian ryegrass; [2]) was 70, the “Goosegrass plant response rating” value (goosegrass; 31 g ai/ha) was 70 and the “Goosegrass plant response rating” value (goosegrass; 62 g ai/ha) was 90. The “Plant response rating, Goosegrass” value (goosegrass; [1]) was 98, the “Plant response rating, Goosegrass” value (goosegrass; [2]) was 100 and the “Soybean plant response rating” value (soybean; 31 g ai/ha) was 35. For the same compound, the “Soybean plant response rating” value (soybean; 62 g ai/ha) was 70, the “Plant response rating, Soybean” value (soybean; [1]) was 90 and the “Plant response rating, Soybean” value (soybean; [2]) was 98. For the same compound, the “Waterhemp plant response rating” value (waterhemp; 31 g ai/ha) was 98, the “Waterhemp plant response rating” value (waterhemp; 62 g ai/ha) was 98 and the “Plant response rating, Waterhemp” value (waterhemp; [1]) was 100. The “Plant response rating, Waterhemp” value (waterhemp; [2]) was 100, the “Beggarticks plant response rating” value (hairy beggarticks; 31 g ai/ha) was 10 and the “Beggarticks plant response rating” value (hairy beggarticks; 62 g ai/ha) was 20. The “Plant response rating, Beggarticks” value (hairy beggarticks; [1]) was 40 and the “Plant response rating, Beggarticks” value (hairy beggarticks; [2]) was 90.
With `NC(=S)c1cccc(Oc2ncc(Cl)cn2)c1-n1cc(Cl)cn1` [Compound 292] the “Plant response rating, Field Bindweed” value (field bindweed; [3]) was 0, the “Field Bindweed plant response rating” value (field bindweed; 16 g ai/ha) was 0 and the “Field Bindweed plant response rating” value (field bindweed; 31 g ai/ha) was 5. For the same compound, the “Field Bindweed plant response rating” value (field bindweed; 62 g ai/ha) was 30, the “Plant response rating, Field Bindweed” value (field bindweed; [1]) was 65 and the “Plant response rating, Sandbur” value (sandbur; [3]) was 0. The “Sandbur plant response rating” value (sandbur; 31 g ai/ha) was 20, the “Sandbur plant response rating” value (sandbur; 62 g ai/ha) was 0 and the “Plant response rating, Sandbur” value (sandbur; [1]) was 35. The “Plant response rating, Dayflower, VA” value (dayflower; [3]) was 20, the “Dayflower, VA plant response rating” value (dayflower; 16 g ai/ha) was 20 and the “Dayflower, VA plant response rating” value (dayflower; 31 g ai/ha) was 20. For the same compound, the “Dayflower, VA plant response rating” value (dayflower; 62 g ai/ha) was 35, the “Plant response rating, Dayflower, VA” value (dayflower; [1]) was 85 and the “Plant response rating, Lambsquarters” value (lambsquarters; [3]) was 0. The “Lambsquarters plant response rating” value (lambsquarters; 31 g ai/ha) was 0, the “Lambsquarters plant response rating” value (lambsquarters; 62 g ai/ha) was 25 and the “Plant response rating, Lambsquarters” value (lambsquarters; [1]) was 100. For the same compound, the “Plant response rating, Nutsedge, Yellow” value (yellow nutsedge; [3]) was 0, the “Nutsedge, Yellow plant response rating” value (yellow nutsedge; 31 g ai/ha) was 0 and the “Nutsedge, Yellow plant response rating” value (yellow nutsedge; 62 g ai/ha) was 15. For the same compound, the “Plant response rating, Nutsedge, Yellow” value (yellow nutsedge; [1]) was 35, the “Plant response rating, Ragweed” value (ragweed; [3]) was 0 and the “Ragweed plant response rating” value (ragweed; 31 g ai/ha) was 0. The “Ragweed plant response rating” value (ragweed; 62 g ai/ha) was 0, the “Plant response rating, Ragweed” value (ragweed; [1]) was 35 and the “Plant response rating, Ryegrass, Italian” value (Italian ryegrass; [3]) was 0. The “Ryegrass, Italian plant response rating” value (Italian ryegrass; 31 g ai/ha) was 0, the “Ryegrass, Italian plant response rating” value (Italian ryegrass; 62 g ai/ha) was 0 and the “Plant response rating, Ryegrass, Italian” value (Italian ryegrass; [1]) was 35. For the same compound, the “Plant response rating, Goosegrass” value (goosegrass; [3]) was 0, the “Goosegrass plant response rating” value (goosegrass; 31 g ai/ha) was 20 and the “Goosegrass plant response rating” value (goosegrass; 62 g ai/ha) was 50. The “Plant response rating, Goosegrass” value (goosegrass; [1]) was 70, the “Plant response rating, Soybean” value (soybean; [3]) was 0 and the “Soybean plant response rating” value (soybean; 31 g ai/ha) was 0. For the same compound, the “Soybean plant response rating” value (soybean; 62 g ai/ha) was 40, the “Plant response rating, Soybean” value (soybean; [1]) was 50 and the “Plant response rating, Waterhemp” value (waterhemp; [3]) was 0. For the same compound, the “Waterhemp plant response rating” value (waterhemp; 31 g ai/ha) was 20, the “Waterhemp plant response rating” value (waterhemp; 62 g ai/ha) was 80 and the “Plant response rating, Waterhemp” value (waterhemp; [1]) was 100. For the same compound, the “Plant response rating, Beggarticks” value (hairy beggarticks; [3]) was 0, the “Beggarticks plant response rating” value (hairy beggarticks; 16 g ai/ha) was 0 and the “Beggarticks plant response rating” value (hairy beggarticks; 31 g ai/ha) was 15. For the same compound, the “Beggarticks plant response rating” value (hairy beggarticks; 62 g ai/ha) was 15 and the “Plant response rating, Beggarticks” value (hairy beggarticks; [1]) was 35.
